For the test, the system named is organotypical skin equivalents (Skinethic). Put plainly: UV-induced formation of "sunburn cells" in organotypical skin equivalents. As to conditions: for Number of counted "sunburn cells" in individual sections of the UV-irradiated skin equivalents / Number of counted "sunburn cells", mean M of six sections: pretreatment 24 h with ectoin 4%; for Number of counted "sunburn cells" in individual sections of the UV-irradiated skin equivalents: individual section. Type of test: cell-based. The protocol:
An investigation is carried-out to determine whether ectoin has an inhibiting action on the UV-induced formation of “sunburn cells” in organotypical skin equivalents.
The investigations are carried out in accordance with the method described in A. R. Young, ‘The sunburn cell’, Photodermatology 4 (1987) 127-134. The cells used are organotypical skin models. Skinethic® skin equivalents from Skinethic, Nice, France (Lot. No. PK 2 DT 07 99 022A 0603) are used. Ectoin is weighed in directly prior to the start of the test and dissolved in the use concentration of 4% in EBSS (Gibco BRL; Order No. 15015 044). The organotypical skin equivalents (Skinethic) are, depending on the treatment group, incubated for 24 hours with or without ectoin (4%) at 37° C. and 5% CO2. The two treatment groups are then subjected to UV irradiation (0, 30, 60, 100, 200, 300 mJ/cm^2 of UVB) using a sun simulator (SOL 500, Dr. Hönle). Following incubation for a further 24 hours at 37° C. and 5% CO2, all skin equivalents are prepared histologically and investigated for induced “sunburn cells”.

These results are taken from patent publication US20030157040A1, “Use of ectoine or ectoine derivatives in cosmetic formulations” (Merck Patent GmbH, priority 1998, published 2003).

Where “and” joins values, the source holds several entries; their conditions need not be identical. Identical values can stand only once. Entries after “also recorded” stand apart in the source; their conditions may differ.

Take `CC1=N[C@H](C(=O)O)CCN1` [ectoin, (S)-1,4,5,6-tetrahydro-2-methyl-4-pyrimidine-carboxylic acid]: the “Number of counted "sunburn cells" in individual sections of the UV-irradiated skin equivalents” value is 0 (irradiation 0 mJ/cm^2 UVB); 1 (2×) and 2 (2×) and 3 and 0 (irradiation 30 mJ/cm^2 UVB); 2 (2×) and 4 and 3 (3×) (irradiation 60 mJ/cm^2 UVB); 9 (2×) and 10 (2×) and 8 (2×) (irradiation 100 mJ/cm^2 UVB); 39 (2×) and 32 (2×) and 35 and 34 (irradiation 200 mJ/cm^2 UVB); >100 (5×) and <100 (irradiation 300 mJ/cm^2 UVB). Further, the “Number of counted "sunburn cells", mean M of six sections” value (shortened to “Number … of six sections”) (irradiation 0 mJ/cm^2 UVB, mean of six sections) was 0.00; the “Number … of six sections” value (irradiation 30 mJ/cm^2 UVB, mean of six sections) was 1.50; the “Number … of six sections” value (irradiation 60 mJ/cm^2 UVB, mean of six sections (per section)) is 2.83±0.75 and 2.83; the “Number … of six sections” value (irradiation 100 mJ/cm^2 UVB, mean of six sections (per section)) was 9±0.89 and 9.00; the “Number … of six sections” value (irradiation 200 mJ/cm^2 UVB, mean of six sections (per section)) was 35.17±3.19 and 35.17; the “Number … of six sections” value (irradiation 300 mJ/cm^2 UVB, mean of six sections) is reported as greater than 100. The “dose-effect relationship between the rate of formation of SBCs and the administered UV dose” value (pretreatment with ectoin versus no pretreatment, 0-300 mJ/cm^2 UVB) was “shifted significantly to higher UV dose ranges; also recorded: significantly into higher UV dose ranges”.
